Several values for one entry are separate records, joined by “and”; a condition that tells them apart may be missing. Identical values can stand only once. Like-named read-outs stand apart in the source and are kept apart here.
Experiments:
[1] = test system: LoVo (colon cancer) cell line; experiment: IC50 determination, MIT (tetrazolium) assay, 72 h (Example 18); type: cell-based, human; conditions: Homo sapiens, 72 hours of drug exposure
Description: (§1) Before plating, cell cultures were trypsinized and cell number estimated using an automated flow cytometer.
(§2) Cells were harvested and seeded in 96 well microtiter plates at the appropriate cell density (5,000-10,000 cells) in 150 μL of media and incubated for 24 hours to allow the cells to attach before drug addition.
(§3) After the incubation period (72 hours), 50 μL of MIT solution was added to each microtiter well and incubated for further 8 hours at 37° C. The culture medium was then removed and 50 μl, of DMSO were added to dissolve the MIT crystals. Optical densities were read at 540 nm on spectrophotometer microplate reader.
(§4) IC50 values were calculated from an average of two to four assays for each of the test agents.

[2] = test system: HT-29 (colon cancer) cell line; experiment: as above; type: cell-based, human; conditions: Homo sapiens; HT-29, 72 hours of drug exposure
Description: as §1, §2, §3, §4

CaLu-6 tumors = type: in vivo, mice; conditions: PM00104 0.9 mg/kg/day IV and/or Gemcitabine 180 mg/kg/day IP
Description: (§5) Female athymic nude mice (Harlan Sprague Dawley, Madison, Wis.) were utilized for all experiments. Animals were housed in ventilated rack caging with food and water ad libitum. The mice were acclimated for at least 5 days prior to tumor implantation.
(§6) The tumor model used in this study was CaLu-6 cell line which is a human lung cancer cell line obtained from the ATCC (Manassas, Va.). CaLu-6 cells were grown in Eagle's Minimum Essential Medium (MEM), 10% FBS and 2 mM L-glutamine. Cells from in vitro passage 12 were implanted SC into study mice using a 1 ml syringe with a 13G trocar: 5×10^6 cells/mouse in 0.2 ml 50% Matrigel/50% MEM medium of CaLu-6 without serum or antibiotics. Bacterial culture was taken on cells used to implant the study.
When tumors reached an appropriated volume, within the size range of 99±17 mm^3 (mean±SD), mice were randomized into the treatment and control groups based on tumor weight by using LabCat® In Life module V 8.0 SP1 tumor tracking and measurement software. Treatments were initiated on DPI 9.
(§7) Tumor size measurements were recorded 2-3 times/week from the treatment initiation until the termination of the study.
(§8) Mean, standard deviation and standard error of the mean were determined for tumor volume for all animal groups at all assessments. Student's t test was performed on tumor volumes at each measurement day, including at the end of the study, to determine whether there were any statistically significant differences between combination treatment groups and single monotherapy treatment groups.

NCI-H460 tumors = type: in vivo, mice; conditions: for % Inhibition: PM00104 0.9 mg/kg/day, single agents and combination, r5-r13 = day 9,13,16,21,24,27,30,38,41
Description: as §5
as §6, with “NCI-H460” for “CaLu-6”, “NSCLC” for “lung cancer”, “CaLu-6 cells were grown in Eagle's Minimum Essential Medium (MEM), 10% FBS and 2 mM L-glutamine.” left out, “7” for “12”, “RPMI” for “MEM”
Treatments were initiated on DPI 9.
as §7, §8

MRI-H-254 tumors = type: in vivo, mice
Description: Female athymic nude mice (Harlan Sprague Dawley, Madison, Wis.) were utilized for all experiments. Animals were housed in ventilated rack caging with food and water ad libitum. The mice were acclimated for at least 5 days prior to tumor implantation with tumor fragments.
Bacterial culture was taken on cells used to implant the study.
Treatments were initiated on DPI 20.
5-FU was provided in the form of injection vials which was diluted with 0.9% sterile Saline.
Tumor size measurements were recorded twice weekly from the treatment initiation until the termination of the study.
as §8

[3] = PM00104 0.9 mg/kg/day IV and/or Bevacizumab 5 mg/kg/day IP
[4] = PM00104 0.90 IV, 5-FU 100 IP mg/kg/day (G2, G3, G5), DPI 20, 27, 34

In the case of `COc1c(C)cc2c(c1O)[C@@H]1[C@@H]3Cc4c(OC(C)=O)c(C)c5c(c4[C@H](CNC(=O)/C=C/c4cccc(C(F)(F)F)c4)N3[C@@H](O)[C@H](C2)N1C)OCO5` [PM00104], the IC50 [1] is reported as 3 nM, the IC50 [2] is reported as 6 nM and the “% T/C on day 9” value (CaLu-6 tumors) is reported as 102.6%. For the same compound, the “% T/C on day 12” value (CaLu-6 tumors) was 77.9%, the “% T/C on day 15” value (CaLu-6 tumors) was 78.8% and the “% T/C on day 19” value (CaLu-6 tumors) was 90.6%. The “% T/C on day 22” value (CaLu-6 tumors) was 87.8%, the “% T/C on day 26” value (CaLu-6 tumors) was 87.6% and the “% T/C on day 29” value (CaLu-6 tumors) was 73.5%. The “% T/C on day 34” value (CaLu-6 tumors) was 75.8%, the “% T/C on day 40” value (CaLu-6 tumors) was 88.3% and the “% T/C on day 9” value (NCI-H460 tumors; [3]) was 96.3%. The “% T/C on day 13” value (NCI-H460 tumors; [3]) was 97.8%, the “% T/C on day 16” value (NCI-H460 tumors; [3]) was 75.9% and the “% T/C on day 21” value (NCI-H460 tumors; [3]) was 73.2%. For the same compound, the “% T/C on day 24” value (NCI-H460 tumors; [3]) was 66.8%, the “% T/C on day 27” value (NCI-H460 tumors; [3]) was 43.8% and the “% T/C on day 30” value (NCI-H460 tumors; [3]) was 45.1%. For the same compound, the “% T/C on day 38” value (NCI-H460 tumors; [3]) was 125.1%, the “% T/C on day 41” value (NCI-H460 tumors; [3]) was 132.5% and the “% Inhibition” value (NCI-H460 tumors; bevacizumab 5 mg/kg/day) was 24.1% and 33.2%. For the same compound, the “% Inhibition” value (NCI-H460 tumors; temsirolimus 10 mg/kg/day) was 24.1% and 33.2%, the “% Inhibition” value (NCI-H460 tumors; temsirolimus 20 mg/kg/day) was 24.1% and 33.2% and the “% T/C on day 20” value (MRI-H-254 tumors; [4]) was 98.7%. The “% T/C on day 23” value (MRI-H-254 tumors; [4]) was 95.9%, the “% T/C on day 26” value (MRI-H-254 tumors; [4]) was 83.7% and the “% T/C on day 30” value (MRI-H-254 tumors; [4]) was 75.3%. For the same compound, the “% T/C on day 34” value (MRI-H-254 tumors; [4]) was 53.1%, the “% T/C on day 36” value (MRI-H-254 tumors; [4]) was 46.5% and the “% T/C on day 43” value (MRI-H-254 tumors; [4]) was 26.9%. For the same compound, the “% T/C on day 49” value (MRI-H-254 tumors; [4]) was 36.7%, the “% T/C on day 56” value (MRI-H-254 tumors; [4]) was 50.6% and the “% T/C on day 63” value (MRI-H-254 tumors; [4]) was 81.3%. The “% Inhibition” value (MRI-H-254 tumors; day 20, PM00104 0.9 and 5-FU 50 mg/kg/day) was 1.3%, the “% Inhibition” value (MRI-H-254 tumors; day 20, PM00104 0.9 and 5-FU 100 mg/kg/day) was 1.3% and the “% Inhibition” value (MRI-H-254 tumors; day 23, PM00104 0.9 and 5-FU 50 mg/kg/day) was 4.1%. For the same compound, the “% Inhibition” value (MRI-H-254 tumors; day 23, PM00104 0.9 and 5-FU 100 mg/kg/day) was 4.1%, the “% Inhibition” value (MRI-H-254 tumors; day 26, PM00104 0.9 and 5-FU 50 mg/kg/day) was 16.3% and the “% Inhibition” value (MRI-H-254 tumors; day 26, PM00104 0.9 and 5-FU 100 mg/kg/day) was 16.3%. For the same compound, the “% Inhibition” value (MRI-H-254 tumors; day 30, PM00104 0.9 and 5-FU 50 mg/kg/day) was 24.7%, the “% Inhibition” value (MRI-H-254 tumors; day 30, PM00104 0.9 and 5-FU 100 mg/kg/day) was 24.7% and the “% Inhibition” value (MRI-H-254 tumors; day 34, PM00104 0.9 and 5-FU 50 mg/kg/day) was 46.9%. The “% Inhibition” value (MRI-H-254 tumors; day 34, PM00104 0.9 and 5-FU 100 mg/kg/day) was 46.9%, the “% Inhibition” value (MRI-H-254 tumors; day 36, PM00104 0.9 and 5-FU 50 mg/kg/day) was 53.5% and the “% Inhibition” value (MRI-H-254 tumors; day 36, PM00104 0.9 and 5-FU 100 mg/kg/day) was 53.5%. For the same compound, the “% Inhibition” value (MRI-H-254 tumors; day 43, PM00104 0.9 and 5-FU 50 mg/kg/day) was 73.1%, the “% Inhibition” value (MRI-H-254 tumors; day 43, PM00104 0.9 and 5-FU 100 mg/kg/day) was 73.1% and the “% Inhibition” value (MRI-H-254 tumors; day 49, PM00104 0.9 and 5-FU 50 mg/kg/day) was 63.3%. The “% Inhibition” value (MRI-H-254 tumors; day 49, PM00104 0.9 and 5-FU 100 mg/kg/day) was 63.3%, the “% Inhibition” value (MRI-H-254 tumors; day 56, PM00104 0.9 and 5-FU 50 mg/kg/day) was 49.4% and the “% Inhibition” value (MRI-H-254 tumors; day 56, PM00104 0.9 and 5-FU 100 mg/kg/day) was 49.4%. For the same compound, the “% Inhibition” value (MRI-H-254 tumors; day 63, PM00104 0.9 and 5-FU 50 mg/kg/day) was 18.7% and the “% Inhibition” value (MRI-H-254 tumors; day 63, PM00104 0.9 and 5-FU 100 mg/kg/day) was 18.7%.

— patent US20110070232A1, “Combination Therapy with an Antitumor Alkaloid” (Pharma Mar, S.A., priority 2008, published 2011)
